Source: patent publication US9073900B2, “Dihydroquinone derivatives of piperidine and piperazine” (KING FAHD UNIVERSITY OF PETROLEUM AND MINERALS, priority 2013, dated 2015)

Row | SMILES | melting point [°C]
1 | O=C1NCc2ccc(N3CCN(Cc4ccc(-c5ccccc5)cc4)CC3)cc2N1 [Compound 5a, 7-(4-(biphenyl-4-ylmethyl)piperazin-1-yl)-3,4-dihydroquinazolin-2(1H)-one] | 134 to 135
2 | O=C1NCc2ccc(N3CCN(Cc4ccc(-c5ccc(F)cc5)cc4)CC3)cc2N1 [Compound 5b, 7-(4-((4′-fluorobiphenyl-4-yl)methyl)piperazin-1-yl)-3,4-dihydroquinazolin-2(1H)-one] | 220 to 221
3 | O=C1NCc2ccc(N3CCN(Cc4cncc(-c5ccc(F)cc5)c4)CC3)cc2N1 [Compound 5d, 7-(4-((5-(4-fluorophenyl)pyridin-3-yl)methyl)piperazin-1-yl)-3,4-dihydroquinazolin-2(1H)-one] | 180 to 181
4 | O=C1NCc2ccc(N3CCN(Cc4cncc(C5=CCCC5)c4)CC3)cc2N1 [Compound 5f, 7-(4((5-cyclopentenylpyridin-3-yl)methyl)piperazin-1-yl)-3,4-dihydroquinazolin-2(1H)-one] | 185 to 186

Second part, the compound after the results:

Row | melting point [°C] | SMILES
5 | 160 to 161 | O=C1NCc2ccc(C3CCN(Cc4ccc(-c5ccc(F)cc5)cc4)CC3)cc2N1 [Compound 6b, 7-(1-((4′-fluorobiphenyl-4-yl)methyl)piperidin-4-yl)-3,4-dihydroquinazolin-2(1H)-one]
6 | 166 to 167 | O=C1NCc2ccc(C3CCN(Cc4cncc(C5=CCCC5)c4)CC3)cc2N1 [Compound 6f, 7-(1-((5-cyclopentenylpyridin-3-yl)methyl)piperidin-4-yl)-3,4-dihydroquinazolin-2(1H)-one]
